Reference: patent US5039691A, “5-(1-(imidazol)methyl)-3,3-disubstituted-2(3H)furanone derivatives” (Marion Merrell Dow Inc., priority 1990, dated 1991)
Where a name gives a salt, the structure may show the parent alone.

Key:
[1] = system: isolated guinea pig ileum; conditions: Kolokouris et al., Ann. Pharm. Fr. 1985; cited from earlier work
[2] = biological target: T1, muscarinic cholinergic receptors on intestinal (ileal-longitudinal) smooth muscle (Cavia porcellus, UniProt H0W1Z3); experiment: Antimuscarinic test: antagonism of carbachol contraction of isolated ileum (Muscarinic Antagonist Activity, Ileum); design: species or system guinea pig; conditions: carbachol agonist, 37° C.
T1 construct: The longitudinal muscle, with the myenteric plexus attached, is separated from the underlying circular muscle; from tissue; host or cells: guinea pig ileum, longitudinal smooth muscle with myenteric plexus

Male Guinea pigs = experiment: Primary in vivo bronchodilator assay for muscarinic antagonists (reversal of carbachol bronchoconstriction); design: species or system guinea pig; conditions: Cavia porcellus, iv, cumulative dose causing 50% reversal of carbachol bronchoconstriction
Description: PRIMARY IN VIVO BRONCHODILATOR ASSAY FOR MUSCARINIC ANTAGONISTS Male Guinea pigs were anesthetized by urethane. The trachea, carotid artery and jugular vein were cannulated. Animals were ventilated with room air at a constant rate and volume. Airway pressure was measured from a side port of the tracheal catheter, and blood pressure and heart rate were monitored as well. After a stable baseline period, an aerosol of carbachol was administered via an ultrasonic nebulizer. Once the bronchoconstrictor response plateaued, test compound was given in increasing i.v. doses to cause graded, cumulative reductions in airway pressure. If more than a 50% reversal of bronchoconstriction occurred, an ED50 value for bronchodilator potency was calculated using a probit analysis. The ED50 was defined as the cumulative i.v. dose that caused a 50% reversal of bronchoconstriction.

[3] = biological target: T2, muscarinic cholinergic receptors on bladder detrusor muscle (Cavia porcellus, UniProt H0W1Z3); experiment: Antimuscarinic test: antagonism of carbachol contraction of isolated bladder (Muscarinic Antagonist Activity, Bladder); design: species or system guinea pig; conditions: bladder detrusor strips, carbachol agonist, 35° C.
T2 construct: The peritoneal cavity is opened and the bladder is held lightly at its apex; from tissue; host or cells: guinea pig urinary bladder, detrusor strips without mucosa
Description: ANTIMUSCARINIC TEST PROTOCOL
PREPARATION OF BLADDER FOR TESTING
Male albino guinea pigs are killed by decapitation or cervical dislocation. The peritoneal cavity is opened and the bladder is held lightly at its apex, stretched gently, and fat is lifted with fine forceps and dissected away in situ with blunt-tipped scissors as close to the surface of the bladder as possible. The tissue is placed in a latex-bottomed Petri dish that contains a modified Krebs solution (133 mM NaCl, 1.3 mM […], 16.3 mM NaHCO3, 4.7 mM KCl, 0.6 mM MgSO4.7H2 O, 2.5 mM CaCl2.2H2 O, 7.7 mM dextrose) and cut above the neck. The bladder is collapsed into a flat pouch, which is opened by two lateral incisions and unfolded to give a rectangular sheet of tissue approximately 2 cm long and 1 cm wide. The sheet is gently stretched and pinned to the bottom of the Petri dish. Blunt separation of the mucosa, which is visible as a looser superficial pink layer, is started at one end by carefully inserting the blades of micro dissecting scissors between the mucosa and muscle layers and using gentle spreading of the blades, together with steady traction with forceps to tease the two layers apart. Clean removal of the mucosa is usually possible without any fraying or tearing of the underlying muscle. The removal of the mucosa is considered essential for improving oxygen supply to the preparation and for providing better access on both sides of the thin muscle sheet for administered drugs (Ambache and Zar, J. Physiol. 210:671, 1970). The sheet is trimmed, if necessary, and cut longitudinally into four strips.
The strips are tied off with 5-0 silk suture and are then suspended in 10 mL water-jacketed glass tissue baths containing the Krebs solution maintained at 35° C. and aerated with 95% O2 /5% CO2. The suture connects each tissue to an isometric force-displacement transducer (Grass or Gould) coupled to a physiograph. Each preparation is suspended under a resting tension of 0.5 g and allowed to equilibrate for 36 minutes. During this period, the baths are emptied and filled every 12 minutes with 10 mL of warm Krebs buffer. At the end of this period, each muscle strip is conditioned by adding 10 μM carbachol to the baths. The drug remains in contact with each tissue for 1-2 minutes and then is removed by four rapid rinses of 10 mL of warm Krebs buffer. The preparations are allowed to recover for an additional 12 minutes before being used in experiments.
Carbachol is dissolved in saline to produce 2×10^-2 M stock concentrations. Serial dilutions (1:10) in saline or water are made from the stock solution. Appropriate volumes of these solutions are added cumulatively to the 10 mL tissue baths in order to obtain the desired bath concentrations.
PREPARATION OF TEST COMPOUNDS
Compounds that are soluble in water or saline are dissolved in these solvents to produce 2×10^-2 or 2×10^-3 M stock concentrations. Small amounts of IN HCl, NaOH, or 95% ethanol may be added for those agents that are not soluble in water or saline alone. Serial dilutions (1:10) in saline or water are made from the stock solution. Compounds that are insoluble in aqueous solvents are dissolved in dimethylsulfoxide (DMSO) to produce 4×10^-2 M stock solutions. Serial dilutions (1:10) in water are made from the stock solution. Other solvents may be used when appropriate and will be specifically described in the experimental procedure. Appropriate volumes are then added to the baths in order to obtain the desired bath concentrations.
Appropriate volumes of carbachol solutions are cumulatively added to the 10 mL tissue baths to increase the concentration of carbachol in the bath step-by-step without washing out after each single dose. With each concentration step, the tissue contracts isometrically. The next concentration is added only after the preceding contraction has reached a steady value. […]

Solubility = type: physicochemical
mammalian heart tissue = conditions: Pohland, S. African Patent 68 05,631; cited from earlier work

T1 sequence (H0W1Z3 1-590): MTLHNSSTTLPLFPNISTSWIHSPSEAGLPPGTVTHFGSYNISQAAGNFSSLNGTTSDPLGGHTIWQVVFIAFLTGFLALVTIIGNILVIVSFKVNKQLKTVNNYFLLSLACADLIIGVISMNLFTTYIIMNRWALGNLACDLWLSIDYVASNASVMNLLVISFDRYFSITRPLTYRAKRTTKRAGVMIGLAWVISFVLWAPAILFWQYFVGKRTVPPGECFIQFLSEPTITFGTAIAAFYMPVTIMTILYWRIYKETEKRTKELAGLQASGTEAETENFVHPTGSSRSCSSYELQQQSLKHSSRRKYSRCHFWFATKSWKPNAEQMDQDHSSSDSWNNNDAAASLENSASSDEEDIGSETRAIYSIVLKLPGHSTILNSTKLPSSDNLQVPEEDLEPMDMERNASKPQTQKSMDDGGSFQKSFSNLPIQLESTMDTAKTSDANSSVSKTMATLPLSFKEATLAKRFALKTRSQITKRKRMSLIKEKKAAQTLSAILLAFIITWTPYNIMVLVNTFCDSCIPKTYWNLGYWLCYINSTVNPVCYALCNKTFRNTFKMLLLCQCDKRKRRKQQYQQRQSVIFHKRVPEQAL
T2 sequence (H0W1Z3 1-590): as above

SMILES | Kb [2] [nM] | Kb [3] [nM] | ED50 (Male Guinea pigs) [mg/kg] | also measured
CN(C)CC1CC(c2ccccc2)(c2ccccc2)OC1=O (stereo not drawn) [3-[(dimethylamino)methyl]-4,5-dihydro-5,5-diphenyl-2(3H)furanone] | – | – | – | prevents contractions of isolated guinea pig ileum (spasmolytic) [1]: prevents contractions of isolated guinea pig ileum
CCc1n(CC2CC(c3ccccc3)(c3ccccc3)C(=O)O2)cc[n+]1C (stereo not drawn) [5-[1-(2-Ethyl-3-methylimidazol)methyl]-4,5-dihydro-3,3-diphenyl-2(3H)furanone bromide] | 8 | 5 | 0.13 | –
CC(C)c1nccn1CC1=CC(c2ccccc2)(c2ccccc2)C(=O)O1 [5-[1-(2-Isopropylimidazol)methyl]-3,3-diphenyl-2(3H)furanone hydrochloride hydrate] | 31 | – | – | solubility (Solubility; in 0.5N HCl and 1 drop of Tween 80): > 1000 µg/mL
CC(C)c1nccn1CC1CC(c2ccccc2)(c2ccccc2)C(=O)O1 (stereo not drawn) [5-[1-(2-Isopropylimidazol)methyl]-4,5-dihydro-3,3-diphenyl-2(3H)furanone hydrochloride] | 30 | 33 | 0.83 | –
CCCc1nccn1CC1CC(c2ccccc2)(c2ccccc2)C(=O)O1 (stereo not drawn) [5-[1-(2-n-Propylimidazol)methyl]-4,5-dihydro-3,3-diphenyl-2(3H)furanone hydrochloride] | 21 | 70 | 1.3 | –
CCCc1n(CC2CC(c3ccccc3)(c3ccccc3)C(=O)O2)cc[n+]1C (stereo not drawn) [5-[1-(3-Methyl-2-n-propylimidazol-methyl]-4,5-dihydro-3,3-diphenyl-2(3H)furanone iodide] | 23 | 11 | 0.11 | –
C[n+]1ccn(CC2CC(c3ccccc3)(c3ccccc3)C(=O)O2)c1 (stereo not drawn) [5-[1-(3-Methylimidazol)methyl]-4,5-dihydro-3,3-diphenyl-2(3H)furanone bromide hydrate] | 322 | 151 | 1 | –
O=C1OC(Cn2cnc(-c3ccccc3)c2)CC1(c1ccccc1)c1ccccc1 (stereo not drawn) [5-[1-(4-Phenylimidazol)methyl]-4,5-dihydro-3,3-diphenyl-2(3H)furanone hydrochloride hydrate] | 140 | – | – | Insol. (printed in the bronchodilator ED50 column) (Solubility; bronchodilator test, i.v.): Insol.
CCOCc1n(C)cc[n+]1CC1CC(c2ccccc2)(c2ccccc2)C(=O)O1 (stereo not drawn) [5-[1-(Ethoxymethyl-3-methylimidazol)methyl]-4,5-dihydro-3,3-diphenyl-2(3H)furanone iodide] | 253 | 339 | > 10 | –
CCN(CC)CC1CC(c2ccccc2)(c2ccccc2)C(=O)O1 (stereo not drawn) [5-[(Diethylamino)-methyl]-4,5-dihydro-3,3-diphenyl-2(3H)furanone] | – | – | – | antiarrhythmic effectiveness in mammalian heart tissue (mammalian heart tissue): antiarrhythmic effectiveness in mammalian heart tissue

The next lines start with results.

Kb [2] [nM] | Kb [3] [nM] | SMILES | ED50 (Male Guinea pigs) [mg/kg] | also measured
68 | 86 | CCc1nccn1CC1CC(c2ccccc2)(c2ccccc2)C(=O)O1 (stereo not drawn) [5-[1-(2-Ethylimidazol)methyl]-4,5-dihydro-3,3-diphenyl-2(3H)furanone hydrochloride] | 4 | –
107 | 238 | Cc1nccn1CC1CC(c2ccccc2)(c2ccccc2)C(=O)O1 (stereo not drawn) [5-[1-(2-Methylimidazol)methyl]-4,5-dihydro-3,3-diphenyl-2(3H)furanone] | 5.5 | –
21 | 129 | CCc1nccn1C[C@H]1CC(c2ccccc2)(c2ccccc2)C(=O)O1 [(R)-(+)-5-[1-(2-Ethylimidazol)methyl]-4,5-dihydro-3,3-diphenyl-2(3H)furanone hydrochloride] | – | –
10 | 15 | CC(C)c1nccn1C[C@H]1CC(c2ccccc2)(c2ccccc2)C(=O)O1 [(R)-(+)-5-[1-(2-Isopropylimidazol)methyl]-4,5-dihydro-3,3-diphenyl-2(3H)furanone hydrochloride] | – | –
169 | 350 | CCc1nccn1C[C@@H]1CC(c2ccccc2)(c2ccccc2)C(=O)O1 [(S)-(-)-5-[1-(2-Ethylimidazol)methyl]-4,5-dihydro-3,3-diphenyl-2(3H)furanone hydrochloride] | – | –
